# According to ChEMBL document CHEMBL5543081, “Design, synthesis and evaluation of antioxidant and anti-inflammatory activities of novel resveratrol derivatives as potential multifunctional drugs” (Eur J Med Chem, 2024):
# Activity calls are given as the source filed them. The rule behind the calls is not given here.
# Test system: RAW264.7
# Test: Inhibition of H2O2 induced ROS production in mouse RAW264.7 cells assessed as decrease in ROS level at 10 uM preincubated for 3 hrs followed by H2O2 addition and measured after 3 hrs DCFH-DA staining based flow cytometry analysis
# Assay type: functional, cell-based
# Conditions: time 6.0 hrs
row,SMILES,inhibition
1,O=C(N/N=C\c1c(O)cc(O)cc1/C=C/c1ccc(O)cc1)c1ccccn1,Active
2,O=C(N/N=C\c1c(O)cc(O)cc1/C=C/c1ccc(O)cc1)c1ccc(O)cc1,Active

# Test system: RAW264.7
# Test: Antiinflammatory activity against mouse RAW264.7 cells assessed as inhibition of LPS-induced NO production at 10 uM preincubated for 4 hrs with compound followed by LPS stimulation and measured after 12 hrs
# Assay type: functional, cell-based
# Conditions: time 16.0 hrs
row,SMILES,Activity
1,O=C(N/N=C\c1c(O)cc(O)cc1/C=C/c1ccc(O)cc1)c1ccccn1,Active
2,O=C(N/N=C\c1c(O)cc(O)cc1/C=C/c1ccc(O)cc1)c1cccc(O)c1,Active
3,O=C(N/N=C\c1c(O)cc(O)cc1/C=C/c1ccc(O)cc1)c1ccc(O)cc1,Active

# Test system: not listed separately
# Test: Antioxidant activity assessed as FRAP radical scavenging activity by measuring reduction of Fe3+ complex to Fe2+ analogue incubated for 30 mins by FRAP assay
# Assay type: functional
# Conditions: not given
row,SMILES,Activity [µM]
1,O=C(N/N=C\c1c(O)cc(O)cc1/C=C/c1ccc(O)cc1)c1ccccc1O,0.9
2,Cc1ccc(C(=O)N/N=C\c2c(O)cc(O)cc2/C=C/c2ccc(O)cc2)cc1,0.5
3,O=C(N/N=C\c1c(O)cc(O)cc1/C=C/c1ccc(O)cc1)c1cccnc1,1.2
4,O=C(N/N=C\c1c(O)cc(O)cc1/C=C/c1ccc(O)cc1)c1ccncc1,1.1
5,Cc1c(C)c2c(c(C)c1O)CCC(C)(C(=O)O)O2 (stereo not given) [TROLOX],2.5
6,O=C(N/N=C\c1c(O)cc(O)cc1/C=C/c1ccc(O)cc1)c1ccc(Cl)cc1,0.7
7,O=C(N/N=C\c1c(O)cc(O)cc1/C=C/c1ccc(O)cc1)c1ccccn1,0.9
8,O=C(N/N=C\c1c(O)cc(O)cc1/C=C/c1ccc(O)cc1)c1cccc(O)c1,1.3
9,Cc1ccccc1C(=O)N/N=C\c1c(O)cc(O)cc1/C=C/c1ccc(O)cc1,0.4
10,O=C(N/N=C\c1c(O)cc(O)cc1/C=C/c1ccc(O)cc1)c1ccc(F)cc1,0.8
11,O=C(N/N=C\c1c(O)cc(O)cc1/C=C/c1ccc(O)cc1)c1ccc(O)cc1,1.1

# Test system: RAW264.7
# Test: Antiinflammatory activity in LPS-stimulated mouse RAW264.7 cells assessed as reduction in iNOS level preincubated for 4 hrs followed by LPS stimulation for 12 hrs by Western blot analysis
# Assay type: functional, cell-based
# Conditions: dose 2.5-10 µM, time 16.0 hrs
row,SMILES,Activity
1,O=C(N/N=C\c1c(O)cc(O)cc1/C=C/c1ccc(O)cc1)c1ccc(O)cc1,Dose-Dependent Effect

# Test system: RAW264.7
# Test: Antiinflammatory activity in LPS-stimulated mouse RAW264.7 cells assessed as inhibition of JNK phosphorylation level preincubated for 4 hrs followed by LPS stimulation for 12 hrs by Western blot analysis
# Assay type: functional, cell-based
# Conditions: dose 2.5-10 µM, time 16.0 hrs
row,SMILES,Activity
1,O=C(N/N=C\c1c(O)cc(O)cc1/C=C/c1ccc(O)cc1)c1ccc(O)cc1,Dose-Dependent Effect

# Test system: RAW264.7
# Test: Upregulation of HO-1 mRNA expression in H2O2 induced mouse RAW264.7 cells at 2.5 to 10 uM by RT-qPCR analysis
# Assay type: functional, cell-based
# Conditions: dose 2.5-10 µM
row,SMILES,Activity
1,O=C(N/N=C\c1c(O)cc(O)cc1/C=C/c1ccc(O)cc1)c1ccc(O)cc1,Active

# Test system: RAW264.7
# Test: Upregulation of Nrf2 expression in H2O2 induced mouse RAW264.7 cells by Western blot analysis
# Assay type: functional, cell-based
# Conditions: dose 2.5-10 µM
row,SMILES,Activity
1,O=C(N/N=C\c1c(O)cc(O)cc1/C=C/c1ccc(O)cc1)c1ccc(O)cc1,Dose-Dependent Effect

# Test system: RAW264.7
# Test: Antiinflammatory activity in LPS-stimulated mouse RAW264.7 cells assessed as reduction in iNOS mRNA expression preincubated for 4 hrs followed by LPS stimulation for 12 hrs by RT-qPCR analysis
# Assay type: functional, cell-based
# Conditions: dose 2.5-10 µM, time 16.0 hrs
row,SMILES,Activity
1,O=C(N/N=C\c1c(O)cc(O)cc1/C=C/c1ccc(O)cc1)c1ccc(O)cc1,Dose-Dependent Effect

# Test system: RAW264.7
# Test: Protection against H2O2 induced apoptosis in mouse RAW264.7 cells assessed as cell apoptosis rate at 10 uM preincubated for 3 hrs with compound followed by H2O2 stimulation and measured after 3 hrs by annexin V-FITC and PI staining based flow cytometry analysis (reference value: 15.63%)
# Assay type: functional
# Conditions: time 6 hrs
row,SMILES,Activity [%]
1,O=C(N/N=C\c1c(O)cc(O)cc1/C=C/c1ccc(O)cc1)c1ccc(O)cc1,26.58

# Test system: RAW264.7
# Test: Protection against H2O2 induced apoptosis in mouse RAW264.7 cells assessed as decrease in cleaved caspase-3 expression at 10 uM by Western blot analysis
# Assay type: functional, cell-based
# Conditions: not given
row,SMILES,Activity
1,O=C(N/N=C\c1c(O)cc(O)cc1/C=C/c1ccc(O)cc1)c1ccc(O)cc1,Active

# Test system: RAW264.7
# Test: Cytotoxicity against mouse RAW264.7 cells at 10 uM measured after 24 hrs by MTT assay relative to control
# Assay type: functional
# Conditions: not given
row,SMILES,Activity [%]
1,O=C(N/N=C\c1c(O)cc(O)cc1/C=C/c1ccc(O)cc1)c1cccnc1,>80
2,O=C(N/N=C\c1c(O)cc(O)cc1/C=C/c1ccc(O)cc1)c1ccncc1,>80
3,O=C(N/N=C\c1c(O)cc(O)cc1/C=C/c1ccc(O)cc1)c1ccccn1,>80
4,O=C(N/N=C\c1c(O)cc(O)cc1/C=C/c1ccc(O)cc1)c1cccc(O)c1,>80
5,O=C(N/N=C\c1c(O)cc(O)cc1/C=C/c1ccc(O)cc1)c1ccc(O)cc1,>80

# Test system: RAW264.7
# Test: Antiinflammatory activity in LPS-stimulated mouse RAW264.7 cells assessed as reduction in NF-kappaB p65 phosphorylation level at 10 uM preincubated for 4 hrs followed by LPS stimulation for 12 hrs by Western blot analysis
# Assay type: functional, cell-based
# Conditions: time 16.0 hrs
row,SMILES,Activity
1,O=C(N/N=C\c1c(O)cc(O)cc1/C=C/c1ccc(O)cc1)c1ccc(O)cc1,Active

# Test system: RAW264.7
# Test: Antiinflammatory activity in LPS-stimulated mouse RAW264.7 cells assessed as effect on ERK phosphorylation level preincubated for 4 hrs followed by LPS stimulation for 12 hrs by Western blot analysis
# Assay type: functional, cell-based
# Conditions: time 16.0 hrs
row,SMILES,Activity
1,O=C(N/N=C\c1c(O)cc(O)cc1/C=C/c1ccc(O)cc1)c1ccc(O)cc1,inactive

# Test system: RAW264.7
# Test: Upregulation of CAT mRNA expression in H2O2 induced mouse RAW264.7 cells at 2.5 to 10 uM by RT-qPCR analysis
# Assay type: functional, cell-based
# Conditions: dose 2.5-10 µM
row,SMILES,Activity
1,O=C(N/N=C\c1c(O)cc(O)cc1/C=C/c1ccc(O)cc1)c1ccc(O)cc1,inactive

# Test system: not listed separately
# Test: Antioxidant activity assessed as ABTS radical scavenging activity after 20 mins
# Assay type: functional
# Conditions: not given
row,SMILES,IC50 [µM]
1,O=C(N/N=C\c1c(O)cc(O)cc1/C=C/c1ccc(O)cc1)c1ccccc1O,12.8
2,Cc1c(C)c2c(c(C)c1O)CCC(C)(C(=O)O)O2 (stereo not given) [TROLOX],14.7
3,O=C(N/N=C\c1c(O)cc(O)cc1/C=C/c1ccc(O)cc1)c1ccccn1,17.1
4,O=C(N/N=C\c1c(O)cc(O)cc1/C=C/c1ccc(O)cc1)c1cccc(O)c1,11.7
5,Cc1ccccc1C(=O)N/N=C\c1c(O)cc(O)cc1/C=C/c1ccc(O)cc1,17.2
6,O=C(N/N=C\c1c(O)cc(O)cc1/C=C/c1ccc(O)cc1)c1ccc(O)cc1,13

# The remaining lines, values ahead:
row,IC50 [µM],SMILES
1,15.7,Cc1ccc(C(=O)N/N=C\c2c(O)cc(O)cc2/C=C/c2ccc(O)cc2)cc1
2,12.7,O=C(N/N=C\c1c(O)cc(O)cc1/C=C/c1ccc(O)cc1)c1cccnc1
3,13.5,O=C(N/N=C\c1c(O)cc(O)cc1/C=C/c1ccc(O)cc1)c1ccncc1
4,17.9,O=C(N/N=C\c1c(O)cc(O)cc1/C=C/c1ccc(O)cc1)c1ccc(Cl)cc1
5,15.7,O=C(N/N=C\c1c(O)cc(O)cc1/C=C/c1ccc(O)cc1)c1ccc(F)cc1

# Test system: RAW264.7
# Test: Upregulation of GPx mRNA expression in H2O2 induced mouse RAW264.7 cells at 2.5 to 10 uM by RT-qPCR analysis
# Assay type: functional, cell-based
# Conditions: dose 2.5-10 µM
row,SMILES,Activity
1,O=C(N/N=C\c1c(O)cc(O)cc1/C=C/c1ccc(O)cc1)c1ccc(O)cc1,inactive

# Test system: RAW264.7
# Test: Antiinflammatory activity in LPS-stimulated mouse RAW264.7 cells assessed as inhibition of p38 phosphorylation level preincubated for 4 hrs followed by LPS stimulation for 12 hrs by Western blot analysis
# Assay type: functional, cell-based
# Conditions: dose 2.5-10 µM, time 16.0 hrs
row,SMILES,Activity
1,O=C(N/N=C\c1c(O)cc(O)cc1/C=C/c1ccc(O)cc1)c1ccc(O)cc1,Dose-Dependent Effect

# Test system: RAW264.7
# Test: Effect on KEAP1 level in H2O2 induced mouse RAW264.7 cells at 2.5 to 10 uM by Western blot analysis
# Assay type: functional, cell-based
# Conditions: dose 2.5-10 µM
row,SMILES,Activity
1,O=C(N/N=C\c1c(O)cc(O)cc1/C=C/c1ccc(O)cc1)c1ccc(O)cc1,inactive

# Test system: not listed separately
# Test: Antioxidant activity assessed as DPPH radical scavenging activity measured for 30 mins by spectrophotometric analysis
# Assay type: functional
# Conditions: not given
row,SMILES,IC50 [µM]
1,O=C(N/N=C\c1c(O)cc(O)cc1/C=C/c1ccc(O)cc1)c1ccccc1O,37.8
2,Cc1c(C)c2c(c(C)c1O)CCC(C)(C(=O)O)O2 (stereo not given) [TROLOX],32.7
3,O=C(N/N=C\c1c(O)cc(O)cc1/C=C/c1ccc(O)cc1)c1ccccn1,98.3
4,O=C(N/N=C\c1c(O)cc(O)cc1/C=C/c1ccc(O)cc1)c1cccc(O)c1,76.6
5,Cc1ccccc1C(=O)N/N=C\c1c(O)cc(O)cc1/C=C/c1ccc(O)cc1,97.3
6,O=C(N/N=C\c1c(O)cc(O)cc1/C=C/c1ccc(O)cc1)c1ccc(O)cc1,69.9

# Further lines, results first:
row,IC50 [µM],SMILES
1,87,Cc1ccc(C(=O)N/N=C\c2c(O)cc(O)cc2/C=C/c2ccc(O)cc2)cc1
2,89.5,O=C(N/N=C\c1c(O)cc(O)cc1/C=C/c1ccc(O)cc1)c1cccnc1
3,104,O=C(N/N=C\c1c(O)cc(O)cc1/C=C/c1ccc(O)cc1)c1ccncc1
4,89.5,O=C(N/N=C\c1c(O)cc(O)cc1/C=C/c1ccc(O)cc1)c1ccc(Cl)cc1
5,86.3,O=C(N/N=C\c1c(O)cc(O)cc1/C=C/c1ccc(O)cc1)c1ccc(F)cc1

# Test system: RAW264.7
# Test: Protection against H2O2 induced apoptosis in mouse RAW264.7 cells assessed as decrease in cleaved PARP expression at 10 uM by Western blot analysis
# Assay type: functional, cell-based
# Conditions: not given
row,SMILES,Activity
1,O=C(N/N=C\c1c(O)cc(O)cc1/C=C/c1ccc(O)cc1)c1ccc(O)cc1,Active

# Test system: RAW264.7
# Test: Upregulation of HO-1 protein level in H2O2 induced mouse RAW264.7 cells at 2.5 to 10 uM by Western blot analysis
# Assay type: functional, cell-based
# Conditions: dose 2.5-10 µM
row,SMILES,Activity
1,O=C(N/N=C\c1c(O)cc(O)cc1/C=C/c1ccc(O)cc1)c1ccc(O)cc1,Active

# Test system: RAW264.7
# Test: Upregulation of SOD mRNA expression in H2O2 induced mouse RAW264.7 cells at 2.5 to 10 uM by RT-qPCR analysis
# Assay type: functional, cell-based
# Conditions: dose 2.5-10 µM
row,SMILES,Activity
1,O=C(N/N=C\c1c(O)cc(O)cc1/C=C/c1ccc(O)cc1)c1ccc(O)cc1,inactive

# Test system: RAW264.7
# Test: Inhibition of H2O2 induced ROS production in mouse RAW264.7 cells assessed as decrease in ROS level preincubated for 3 hrs followed by H2O2 addition and measured after 3 hrs DCFH-DA staining based flow cytometry analysis
# Assay type: functional, cell-based
# Conditions: dose 2.5-10 µM, time 6.0 hrs
row,SMILES,inhibition
1,O=C(N/N=C\c1c(O)cc(O)cc1/C=C/c1ccc(O)cc1)c1ccc(O)cc1,Dose-Dependent Effect
